Results: ChEMBL document CHEMBL1126892, “Comparative molecular field analysis of in vitro growth inhibition of L1210 and HCT-8 cells by some pyrazoloacridines” (J Med Chem, 1993)

Columns and labels:
HCT-8 = assay: Growth inhibition against human colon carcinoma HCT-8 cell line; type: functional, cell-based
L1210 = assay: Growth inhibition against mouse leukemia L1210 cell line; type: functional, cell-based

Row | IC50 (HCT-8) [nM] | IC50 (L1210) [nM] | Structure (SMILES)
1 | 82 | 325 | CCOc1ccc2c(c1)-c1nn(CCNCCO)c3ccc([N+](=O)[O-])c(c13)N2
2 | 193 | 450 | COc1ccc2c(c1)-c1nn(CCNCCO)c3ccc([N+](=O)[O-])c(c13)N2
3 | 5 | 4 | CCN(CC)CCN1Nc2c3cc(OC(C)=O)ccc3nc3c([N+](=O)[O-])ccc1c23
4 | 124 | 208 | CCNCCN1Nc2c3cc(OC)ccc3nc3c([N+](=O)[O-])ccc1c23
5 | 774 | 1830 | CCN(CC)CCN1Nc2c3cc(S(C)(=O)=O)ccc3nc3c([N+](=O)[O-])ccc1c23
6 | 339 | 646 | CCCCOc1ccc2c(c1)-c1nn(CCNCCO)c3ccc([N+](=O)[O-])c(c13)N2
7 | 788 | 877 | CCN(CC)CCN1c2ccccc2-c2nn(CCN(CC)CC)c3ccc([N+](=O)[O-])c1c23
8 |  | > 10000 | O=[N+]([O-])c1ccc2c3c(c4ccccc4nc13)NN2CCO
9 | 11 | 1 | CC(=O)Oc1ccc2nc3c([N+](=O)[O-])ccc4c3c(c2c1)NN4CCCN(C)C
10 | 308 | 605 | CCN(CC)CCn1nc2c3c(c([N+](=O)[O-])ccc31)N(C)c1ccc(OC)cc1-2
11 | 764 | 1330 | CCN(CC)CCCN1Nc2c3cc(OC)ccc3nc3c([N+](=O)[O-])ccc1c23
12 | 185 | 192 | CCN(CC)CCN1Nc2c3ccccc3nc3c([N+](=O)[O-])ccc1c23
13 | 786 | 863 | CCN(CC)CCN1Nc2c3cc(C)ccc3nc3c([N+](=O)[O-])ccc1c23
14 | 901 | 618 | CCN(CC)CCn1nc2c3c(c([N+](=O)[O-])ccc31)N(C)c1ccccc1-2
15 | > 10000 | > 10000 | COc1ccc2c(c1)-c1nn(CCO)c3ccc([N+](=O)[O-])c(c13)N2
16 | 255 | 592 | Cc1ccc2c(c1)-c1nn(CCNCCO)c3ccc([N+](=O)[O-])c(c13)N2
17 | 27 | 8 | CN(C)CCCN1Nc2c3cc(OC(=O)C(C)(C)C)ccc3nc3c([N+](=O)[O-])ccc1c23
18 | 518 | 510 | CN1c2ccccc2-c2nn(CCNCCO)c3ccc([N+](=O)[O-])c1c23
19 | 25 | 275 | CCOc1ccc2c(c1)-c1nn(CCN(C)C)c3ccc([N+](=O)[O-])c(c13)N2
20 | 114 |  | CCOc1ccc2c(c1)-c1nn(CCN(CC)CC)c3ccc([N+](=O)[O-])c(c13)N2
21 | 66 | 399 | CCN(CC)CCN1Nc2c3cc(OC)ccc3nc3c([N+](=O)[O-])cc([N+](=O)[O-])c1c23

Row | IC50 (HCT-8) [nM] | IC50 (L1210) [nM] | Structure (SMILES)
22 | 10 | 10 | CCN(CC)CCN1Nc2c3cc(OC(=O)C(C)(C)C)ccc3nc3c([N+](=O)[O-])ccc1c23
23 | 1140 | 2680 | CCN(CC)CCN1Nc2c3cc(OCc4ccccc4)ccc3nc3c([N+](=O)[O-])ccc1c23
24 | 506 | 645 | CCN(CC)CCN1Nc2c3cccc(OC)c3nc3c([N+](=O)[O-])ccc1c23
25 | 352 | 513 | CSc1ccc2c(c1)-c1nn(CCCN(C)C)c3ccc([N+](=O)[O-])c(c13)N2
26 | 152 | 218 | O=[N+]([O-])c1ccc2c3c(c4ccccc4nc13)NN2CCNCCO
27 |  | > 10000 | CN1Nc2c3ccccc3nc3c([N+](=O)[O-])ccc1c23
28 | 317 | 896 | CCN(CC)CCN1Nc2c3cc(N(C)C)ccc3nc3c([N+](=O)[O-])ccc1c23
29 | 164 | 601 | CN(C)CCN1Nc2c3cc(N(C)C)ccc3nc3c([N+](=O)[O-])ccc1c23
30 |  | > 10000 | CCN(CC)CCN1Nc2c3ccccc3nc3c(NC(C)=O)ccc1c23
31 | 297 | 785 | CCN(CC)CCn1nc2c3c(c(/N=C/N(C)C)ccc31)N(C)c1ccccc1-2
32 | 105 | 396 | COc1ccc2c(c1)-c1nn(CCN(C)C)c3ccc([N+](=O)[O-])c(c13)N2
33 | 1220 | 2710 | C=CCN1c2ccccc2-c2nn(CCNCCO)c3ccc([N+](=O)[O-])c1c23
34 | 123 | 469 | CCN(CC)CCN1Nc2c3cc(OC)ccc3nc3c([N+](=O)[O-])ccc1c23
35 |  | > 10000 | C=Cn1nc2c3c(c([N+](=O)[O-])ccc31)N(C)c1ccccc1-2
36 | 136 | 424 | COc1ccc2c(c1)-c1nn(CCCN(C)C)c3ccc([N+](=O)[O-])c(c13)N2 [PYRAZOLOACRIDINE]
37 | 55 |  | CCOc1ccc2c(c1)-c1nn(CCCN(C)C)c3ccc([N+](=O)[O-])c(c13)N2
38 | 31 | 469 | CCCOc1ccc2c(c1)-c1nn(CCN(CC)CC)c3ccc([N+](=O)[O-])c(c13)N2
39 | 6 | 6 | CCN(CC)CCN1Nc2c3cc(O[Si](C)(C)C(C)(C)C)ccc3nc3c([N+](=O)[O-])ccc1c23
40 |  | 2 | CN(C)CCCN1Nc2c3cc(O)ccc3nc3c([N+](=O)[O-])ccc1c23
41 | 73 | 1180 | CCCCOc1ccc2c(c1)-c1nn(CCN(CC)CC)c3ccc([N+](=O)[O-])c(c13)N2
42 | 1560 | > 10000 | CCN(CC)CCn1nc2c3c(c(N)ccc31)N(C)c1ccccc1-2

Row | Structure (SMILES) | IC50 (HCT-8) [nM] | IC50 (L1210) [nM]
43 | COc1ccc2c(c1)-c1nn(CCN(C)C)c3c([N+](=O)[O-])cc([N+](=O)[O-])c(c13)N2 | 15 | 49
